Data from publication PMC12703502, “Characterization of Novel Angiotensin-Converting Enzyme Inhibitory Peptides” (ACS Medicinal Chemistry Letters, 2025).
Read-outs that look alike come from different tables or passages of the source. Where no end group is shown, it is not given here.

Legend:
[1] = test system: ACE C-domain and N-domain; design: method as in 2 sources, one per row (each row's own in cited_ref): ref 22 (probable, citation mark not shown) ||| ref 20 (probable, citation mark not shown); settings: C-domain vs N-domain; ref 22 (probable, citation mark not shown); cited from earlier work
Excerpt: Both drugs are tripeptides-analogues and present a proline-like C-terminal extremity to interact with the S2′ pocket of ACE, which is composed of Gln281, Tyr520, Lys511, His513, and His353. […] Captopril presents a smaller structure with a sulfhydryl group at the N-terminal to interact with the zinc ion.

[2] = molecular target: Angiotensin-converting enzyme (ACE) (Homo sapiens, UniProt P12821); experiment: ACE inhibition, Cushman & Cheung method with slight modifications (HHL substrate); format: biochemical
Excerpt: Characterization of Novel Angiotensin-Converting Enzyme Inhibitory Peptides Camila Innocente-Alves1,2, Sara Luísa Sulzbach1, Emerson Gonçalves Moreira3, Raul Izidoro Carneiro3, Lucélia Santi1,2,3, Hugo Verli2,3, Walter Orlando Beys-da-Silva1,2,3* 1 Faculdade de Farmácia, Universidade Federal do Rio Grande do Sul, Porto Alegre, Brasil 2 Programa de Pós-Graduação em Biologia Celular e Molecular, Universidade Federal do Rio Grande do Sul, Porto Alegre, Brasil
3 Centro de Biotecnologia (CBiot), Universidade Federal do Rio Grande do Sul, Porto Alegre,
* corresponding author: walter.beys@ufrgs.br
Selection of the bioactive peptides
The peptides were selected from a previous virtual screening performed against our chemical library (PepDB), and evaluated in vitro for its antihypertensive potential. The structures of the peptides, […] […]
PyRosetta. […] The molecular docking result was evaluated usin g the Protein-Ligand Interaction Profile (PLIP) tool ( https://plip-tool.biotec.tu-dresden.de/) for characterization of the interactions and PyMOL ( https://www.pymol.org/) visualization. […]
The peptides were synthesized by AminoTech ( São Paulo, Brazil). […] The ability of the peptides to inhibit ACE activity was evaluated by the Cushman & Cheung method with slight modifications. Absorbances were read at 228 nm (Spectramax M2, Molecular Devices) and ACE inhibition was expressed as percentage of inhibition. […]

ACE = settings: peony seed peptides, VLSGF vs HWS; cited from earlier work

Angiotensin-converting enzyme (ACE), sequence (P12821 30-1306, species assumed): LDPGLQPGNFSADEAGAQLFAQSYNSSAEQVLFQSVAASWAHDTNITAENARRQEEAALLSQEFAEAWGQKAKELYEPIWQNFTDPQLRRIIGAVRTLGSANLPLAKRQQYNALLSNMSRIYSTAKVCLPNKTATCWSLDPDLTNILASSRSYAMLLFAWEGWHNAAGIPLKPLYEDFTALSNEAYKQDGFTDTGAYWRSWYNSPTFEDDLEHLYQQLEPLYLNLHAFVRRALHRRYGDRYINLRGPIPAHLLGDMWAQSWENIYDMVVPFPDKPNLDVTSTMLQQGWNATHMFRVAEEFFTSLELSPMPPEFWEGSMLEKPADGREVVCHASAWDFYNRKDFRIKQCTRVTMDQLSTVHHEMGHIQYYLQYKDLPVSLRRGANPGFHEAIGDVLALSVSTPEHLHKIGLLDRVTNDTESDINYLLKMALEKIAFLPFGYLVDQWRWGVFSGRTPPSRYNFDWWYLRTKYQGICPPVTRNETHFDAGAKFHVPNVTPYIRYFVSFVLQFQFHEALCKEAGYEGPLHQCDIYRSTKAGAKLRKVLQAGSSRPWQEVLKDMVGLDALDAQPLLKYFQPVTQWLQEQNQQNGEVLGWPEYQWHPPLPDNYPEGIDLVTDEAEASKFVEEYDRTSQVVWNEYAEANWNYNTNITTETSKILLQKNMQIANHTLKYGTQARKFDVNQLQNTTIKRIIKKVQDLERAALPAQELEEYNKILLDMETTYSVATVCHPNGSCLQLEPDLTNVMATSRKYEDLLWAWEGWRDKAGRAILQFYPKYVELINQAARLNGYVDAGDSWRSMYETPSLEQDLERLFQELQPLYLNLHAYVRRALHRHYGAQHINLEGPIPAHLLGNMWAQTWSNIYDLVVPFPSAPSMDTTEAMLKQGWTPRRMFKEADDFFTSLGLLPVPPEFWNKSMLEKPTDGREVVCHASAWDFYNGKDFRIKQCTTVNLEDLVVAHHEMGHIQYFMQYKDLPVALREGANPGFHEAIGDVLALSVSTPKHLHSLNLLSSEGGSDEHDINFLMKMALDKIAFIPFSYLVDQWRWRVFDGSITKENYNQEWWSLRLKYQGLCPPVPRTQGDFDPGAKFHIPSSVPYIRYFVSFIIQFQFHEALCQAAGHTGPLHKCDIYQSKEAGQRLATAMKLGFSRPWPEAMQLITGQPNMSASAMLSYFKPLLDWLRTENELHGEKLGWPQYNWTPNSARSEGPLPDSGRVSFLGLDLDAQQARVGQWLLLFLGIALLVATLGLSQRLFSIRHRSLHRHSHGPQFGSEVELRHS

For `NCCCC[C@H](N[C@@H](CCc1ccccc1)C(=O)O)C(=O)N1CCC[C@H]1C(=O)O` [Lisinopril], the “affinity to ACE domains” value [1] is given as “higher affinity to the C-domain”.

MSFLEHFLELK [PepDB_AHP1] showed an IC50 ([2]; Cushman & Cheung method, HHL substrate, absorbance 228 nm, at least triplicates, nonlinear regression GraphPad Prism 8.0.1, read-out: IC50) of 331 µM.

In the case of VLSGF, the “relative IC50” value (ACE) is listed as “lower IC50”.

VWTNCYHLYPAH [PepDB_AHP4] gave an IC50 [2] of 88.6 µM.
